# Earlier results as cited in US20250177320A1 (CinRx Pharma, LLC, priority 2017, published 2025).
smiles,measurement,setting,value
"Oc1cc(O)cc(O)c1 [Phloroglucinol, 1,3,5-benzenetriol]",bioavailability (absorption),after an oral dose,47%
same,plasma half-life,plasma,1.5 h
same,peak blood concentration,single oral dose of 160 mg,677 ng/mL
same,time to peak blood concentration,single oral dose of 160 mg,20 min
